Data as given in patent publication US10168342B2, “Lipid probes and uses thereof” (THE SCRIPPS RESEARCH INSTITUTE, priority 2015, dated 2019).
Where two headings read alike, the source gives them in different places.

Legend:
[1] = target: T1, AEA-DA lipid probe targets in Neuro2a cells (Mus musculus, UniProt O88531)
T1 sequence (O88531 28-306): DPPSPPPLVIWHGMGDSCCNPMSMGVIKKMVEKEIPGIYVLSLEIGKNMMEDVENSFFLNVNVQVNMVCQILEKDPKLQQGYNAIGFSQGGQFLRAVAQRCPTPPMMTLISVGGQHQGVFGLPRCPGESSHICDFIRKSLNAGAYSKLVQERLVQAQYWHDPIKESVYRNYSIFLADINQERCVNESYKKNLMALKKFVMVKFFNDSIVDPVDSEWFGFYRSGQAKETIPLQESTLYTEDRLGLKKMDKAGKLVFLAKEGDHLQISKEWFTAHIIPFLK

[2] = target: T2, AEA-DA lipid probe targets in Neuro2a cells (Mus musculus, UniProt Q8VDP6)
T2 sequence (Q8VDP6 1-213): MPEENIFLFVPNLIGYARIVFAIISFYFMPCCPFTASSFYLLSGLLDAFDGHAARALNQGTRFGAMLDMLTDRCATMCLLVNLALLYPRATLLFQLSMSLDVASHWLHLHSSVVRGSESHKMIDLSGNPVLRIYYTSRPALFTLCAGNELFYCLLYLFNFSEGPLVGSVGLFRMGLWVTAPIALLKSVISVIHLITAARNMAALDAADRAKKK

[3] = target: T3, AEA-DA lipid probe targets in Neuro2a cells (Mus musculus, UniProt Q9Z0R9); conditions: for SILAC ratio, FADS2 (Q9Z0R9): Neuro2a cells, AEA-DA probe
T3 sequence (Q9Z0R9 1-444): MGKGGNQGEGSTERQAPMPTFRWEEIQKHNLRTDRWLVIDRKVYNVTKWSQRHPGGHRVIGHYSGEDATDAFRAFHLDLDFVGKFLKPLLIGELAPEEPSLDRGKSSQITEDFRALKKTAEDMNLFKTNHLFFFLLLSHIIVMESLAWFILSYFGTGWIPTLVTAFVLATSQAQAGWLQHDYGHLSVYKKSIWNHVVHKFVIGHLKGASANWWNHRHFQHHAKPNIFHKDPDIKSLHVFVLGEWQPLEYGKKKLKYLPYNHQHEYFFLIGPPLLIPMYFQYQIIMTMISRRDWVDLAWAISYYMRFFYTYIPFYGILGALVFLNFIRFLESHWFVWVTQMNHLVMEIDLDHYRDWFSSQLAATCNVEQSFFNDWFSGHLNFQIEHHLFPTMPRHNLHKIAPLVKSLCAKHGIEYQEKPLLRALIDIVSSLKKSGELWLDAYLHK

[4] = target: T4, AEA-DA lipid probe targets in Neuro2a cells (Mus musculus, UniProt Q02819)
T4 sequence (Q02819 26-459): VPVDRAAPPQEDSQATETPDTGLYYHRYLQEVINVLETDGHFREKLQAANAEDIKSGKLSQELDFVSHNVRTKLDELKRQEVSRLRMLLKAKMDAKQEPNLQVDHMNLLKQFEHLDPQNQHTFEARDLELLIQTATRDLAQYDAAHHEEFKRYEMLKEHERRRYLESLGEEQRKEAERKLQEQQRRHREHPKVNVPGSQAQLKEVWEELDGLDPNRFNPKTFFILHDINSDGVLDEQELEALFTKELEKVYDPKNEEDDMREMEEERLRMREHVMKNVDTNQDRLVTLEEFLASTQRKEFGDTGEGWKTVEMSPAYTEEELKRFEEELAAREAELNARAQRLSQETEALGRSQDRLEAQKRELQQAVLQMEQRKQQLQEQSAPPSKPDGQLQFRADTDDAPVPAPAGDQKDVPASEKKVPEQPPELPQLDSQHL

[5] = target: T5, AEA-DA lipid probe targets in Neuro2a cells (Mus musculus, UniProt Q8K411)
T5 sequence (Q8K411 16-1036): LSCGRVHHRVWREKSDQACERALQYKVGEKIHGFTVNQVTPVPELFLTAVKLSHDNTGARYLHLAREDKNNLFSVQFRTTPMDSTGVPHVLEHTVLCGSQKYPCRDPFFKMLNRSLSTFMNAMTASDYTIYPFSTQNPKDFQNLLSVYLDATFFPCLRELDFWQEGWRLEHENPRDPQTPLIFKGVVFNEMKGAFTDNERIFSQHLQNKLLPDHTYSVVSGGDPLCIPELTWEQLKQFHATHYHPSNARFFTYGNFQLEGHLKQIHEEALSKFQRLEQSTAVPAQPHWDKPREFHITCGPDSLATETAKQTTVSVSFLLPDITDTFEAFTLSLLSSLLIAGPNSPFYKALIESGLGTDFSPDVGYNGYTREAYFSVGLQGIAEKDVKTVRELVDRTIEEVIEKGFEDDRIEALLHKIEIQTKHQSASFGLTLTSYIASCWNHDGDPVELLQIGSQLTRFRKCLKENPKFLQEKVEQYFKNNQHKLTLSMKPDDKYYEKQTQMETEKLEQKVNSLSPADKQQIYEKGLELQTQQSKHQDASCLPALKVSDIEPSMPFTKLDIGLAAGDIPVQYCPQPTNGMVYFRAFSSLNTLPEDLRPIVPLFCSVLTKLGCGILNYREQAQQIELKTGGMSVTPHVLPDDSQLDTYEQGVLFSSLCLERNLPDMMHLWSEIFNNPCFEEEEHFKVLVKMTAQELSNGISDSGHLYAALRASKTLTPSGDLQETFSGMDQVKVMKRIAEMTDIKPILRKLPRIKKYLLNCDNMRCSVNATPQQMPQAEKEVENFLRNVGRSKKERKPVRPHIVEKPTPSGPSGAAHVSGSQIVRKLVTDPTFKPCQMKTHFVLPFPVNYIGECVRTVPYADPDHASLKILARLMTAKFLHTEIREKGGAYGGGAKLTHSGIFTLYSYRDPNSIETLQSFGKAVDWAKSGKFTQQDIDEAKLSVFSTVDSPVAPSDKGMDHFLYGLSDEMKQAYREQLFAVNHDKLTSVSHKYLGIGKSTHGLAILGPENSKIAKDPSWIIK

For CCCCC/C=C\C/C=C\C/C=C\C/C=C\CCCC(=O)NCCO [AEA, anandamide, reference compound], the “SILAC ratio Ppt1” value ([1]; competitor 200 μM) was 1.1, the “SILAC ratio, Cdipt” value ([2]; competitor 200 μM) was 1.8 and the “SILAC ratio, FADS2 (Q9Z0R9)” value ([3]; competitor 200 μM) was 2.5. For the same molecule, the “SILAC ratio, Fads2” value ([3]; competitor 200 μM) was 2.5, the “SILAC ratio, Nucb1” value ([4]; competitor 200 μM) was 1.5 and the “SILAC ratio, Pitrm1” value ([5]; competitor 200 μM) was 2.1.
For O=C(/C=C/c1cccnc1)NCCCCC1CCN(C(=O)c2ccccc2)CC1 [FK-866, reference compound], the “SILAC ratio Ppt1” value ([1]; competitor 25 μM) was 0.8, the “SILAC ratio, Cdipt” value ([2]; competitor 25 μM) was 1.1 and the “SILAC ratio, FADS2 (Q9Z0R9)” value ([3]; competitor 25 μM) was 1.2. For the same molecule, the “SILAC ratio, Fads2” value ([3]; competitor 25 μM) was 1.2, the “interaction with NUCB1 protein” value ([4]; FIG. 16I and Table 4) was “did not interact” and the “SILAC ratio, Nucb1” value ([4]; competitor 25 μM) was 1.2. For the same molecule, the “SILAC ratio, Pitrm1” value ([5]; competitor 25 μM) was 1.4.
With CN1CCN(C(=O)c2c(-c3ccccc3)c3cc([N+](=O)[O-])ccc3n2C)CC1 [KML110, (1-Methyl-5-nitro-3-phenyl-1H-indol-2-yl)(4-methylpiperazin-1-yl)methanone] the “SILAC ratio Ppt1” value ([1]; competitor 25 μM) was 1.2, the “SILAC ratio, Cdipt” value ([2]; competitor 25 μM) was 0.9 and the “SILAC ratio, Fads2” value ([3]; competitor 25 μM) was 1.4. For the same molecule, the “SILAC ratio, Nucb1” value ([4]; competitor 25 μM) was 3.4 and the “SILAC ratio, Pitrm1” value ([5]; competitor 25 μM) was 2.0.
CN1CCN(C(=O)c2[nH]c3ccc([N+](=O)[O-])cc3c2-c2ccccc2)CC1 [MJN228, (4-Methylpiperazin-1-yl)(5-nitro-3-phenyl-1H-indol-2-yl)methanone] was tested, and the “SILAC ratio Ppt1” value ([1]; competitor 10 μM) was 1.5, the “SILAC ratio Ppt1” value ([1]; competitor 25 μM) was 1.5 and the “SILAC ratio Ppt1” value ([1]; competitor 50 μM) was 2.1. The “SILAC ratio Ppt1” value ([1]; competitor 100 μM) was 4.3, the “SILAC ratio, Cdipt” value ([2]; competitor 10 μM) was 1.0 and the “SILAC ratio, Cdipt” value ([2]; competitor 25 μM) was 1.0. For the same molecule, the “SILAC ratio, Cdipt” value ([2]; competitor 50 μM) was 0.7, the “SILAC ratio, Cdipt” value ([2]; competitor 100 μM) was 0.8 and the “SILAC ratio, FADS2 (Q9Z0R9)” value ([3]; competitor 25 μM) was 1.8. For the same molecule, the “SILAC ratio, Fads2” value ([3]; competitor 10 μM) was 1.3, the “SILAC ratio, Fads2” value ([3]; competitor 25 μM) was 1.8 and the “SILAC ratio, Fads2” value ([3]; competitor 50 μM) was 1.9. For the same molecule, the “SILAC ratio, Fads2” value ([3]; competitor 100 μM) was 2.8, the “concentration at which lipid probe binding to NUCB1 is inhibited (as low as)” value ([4]; Neuro2a cells, AEA-DA 5 μM) was 10 µM and the “concentration of near-maximal inhibition of lipid probe binding to NUCB1” value ([4]; Neuro2a cells, AEA-DA 5 μM) was ~25 µM. The “SILAC ratio, Nucb1” value ([4]; competitor 10 μM) was 3.1, the “SILAC ratio, Nucb1” value ([4]; competitor 25 μM) was 4.7 and the “SILAC ratio, Nucb1” value ([4]; competitor 50 μM) was 5.6. For the same molecule, the “SILAC ratio, Nucb1” value ([4]; competitor 100 μM) was 6.2, the “SILAC ratio, Pitrm1” value ([5]; competitor 10 μM) was 1.6 and the “SILAC ratio, Pitrm1” value ([5]; competitor 25 μM) was 1.9. For the same molecule, the “SILAC ratio, Pitrm1” value ([5]; competitor 50 μM) was 2.2 and the “SILAC ratio, Pitrm1” value ([5]; competitor 100 μM) was 3.4.
For C=CCN(C)CCCCCCOc1ccc(C(=O)c2ccc(Br)cc2)c(F)c1 [Ro 48-8071, reference compound], the “SILAC ratio Ppt1” value ([1]; competitor 25 μM) was 1.6, the “SILAC ratio, Cdipt” value ([2]; competitor 25 μM) was 0.7 and the “SILAC ratio, FADS2 (Q9Z0R9)” value ([3]; competitor 25 μM) was 1.2. For the same molecule, the “SILAC ratio, Fads2” value ([3]; competitor 25 μM) was 1.2, the “SILAC ratio, Nucb1” value ([4]; competitor 25 μM) was 0.9 and the “SILAC ratio, Pitrm1” value ([5]; competitor 25 μM) was 1.0.
